Assay [1] is described as follows: Antagonist activity at P2Y12 receptor in human platelets assessed as inhibition of ADP-induced platelet aggregation by turbidimetric method.
Assay [2] can be described thus: Antagonist activity at P2Y12 receptor in human platelets assessed as inhibition of ADP-induced platelet aggregation by microplate reader analysis.

Turning to `O=P(O)(OC[C@H]1O[C@@H](n2cnc3c(NCC(F)(F)F)nc(SCCC(F)(F)F)nc32)[C@H](O)[C@@H]1O)OP(=O)(O)C(Cl)(Cl)P(=O)(O)O`, the IC50 (commonly the concentration that gives 50% inhibition) in assay [1] was 0.000794 µM.

In the case of `Nc1ncnc2c1ncn2[C@@H]1O[C@H](CO[P@@](=O)(O)O[P@](=O)(O)OP(=O)(O)O)[C@@H](O)[C@H]1O` [ATP], in assay [1], the IC50 is 251 µM. Regarding `CNc1cc2[nH]c(=O)n(-c3ccc(NC(=O)NS(=O)(=O)c4ccc(Cl)s4)cc3)c(=O)c2cc1F` [ELINOGREL], in assay [2], the IC50 is less than 10 µM. Take `Nc1ncnc2c1ncn2[C@@H]1O[C@H](COP(=O)(O)OP(=O)(O)C(Cl)(Cl)P(=O)(O)O)[C@@H](O)[C@H]1O`: in assay [1], the IC50 was 316 µM. On the same count and under the same terms, then `CCCSc1nc(N)c2ncn([C@@H]3O[C@H](COP(=O)(O)OP(=O)(O)C(Cl)(Cl)P(=O)(O)O)[C@@H](O)[C@H]3O)c2n1`, with 0.0025 µM.

For the origin of these results see BindingDB's records for doi:10.1016/j.bmcl.2016.04.030 (Galecto Biotech, 2016).
